Assay results published in publication PMC4425204 (Bioorganic & medicinal chemistry letters, 2014).

Target: FabB (Escherichia coli, UniProt P0A953)
Experiment: NMR wLOGSY assay to evaluate FabB binding
Parameters: species or system E. coli

Sequence of FabB (P0A953 whole entry): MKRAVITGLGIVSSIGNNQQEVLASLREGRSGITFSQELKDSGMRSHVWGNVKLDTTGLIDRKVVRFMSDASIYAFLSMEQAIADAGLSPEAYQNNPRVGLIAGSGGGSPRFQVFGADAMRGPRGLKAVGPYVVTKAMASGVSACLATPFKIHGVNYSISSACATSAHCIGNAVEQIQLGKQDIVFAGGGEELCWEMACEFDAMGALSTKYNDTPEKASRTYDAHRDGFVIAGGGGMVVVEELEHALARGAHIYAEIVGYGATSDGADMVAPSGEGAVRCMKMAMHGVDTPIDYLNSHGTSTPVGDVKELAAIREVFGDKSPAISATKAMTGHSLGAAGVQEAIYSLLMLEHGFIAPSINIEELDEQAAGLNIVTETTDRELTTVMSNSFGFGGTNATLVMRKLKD

With `O=c1oc2cc(Cl)ccc2n1CN(CC1CCOC1)C1CC1` (stereo not shown) [compound 1] the “FabB binding in NMR wLOGSY assay” value was “exhibited binding”.
